This note sets out measurements from ChEMBL document CHEMBL3526064, “Sequential metabolism of AMG 487, a novel CXCR3 antagonist, results in formation of quinone reactive metabolites that covalently modify CYP3A4 Cys239 and cause time-dependent inhibition of the enzyme” (Drug Metab Dispos, 2012).

Data set [1] concerns the target T1, Cytochrome P450 3A4 (Homo sapiens, UniProt P08684). As to the kind of experiment: Drug metabolism assessed as recombinant CYP3A4 (unknown origin)-compound formation treated with (R)-N-(1-(3-(4-hydroxyphenyl)-4-oxo-3,4-dihydropyrido[2,3-d]pyrimidin-2-yl)ethyl)-N-([2-3H]pyridin-3-ylmethyl)-2-(4-(trifluoromethoxy)phenyl)acetamide preincubated for 5 mins followed NADPH addition measured after 45 mins by TIC mass chromatographic analysis. The note with it: recombinant enzyme, 0.75 h. The format is ADME.

The target of data set [2] is T1, Cytochrome P450 3A4. As to the kind of experiment: Drug metabolism assessed as recombinant CYP3A4 (unknown origin)-mediated compound formation treated with [3H]-(R)-N-(1-(3-(4-hydroxyphenyl)-4-oxo-3,4-dihydropyrido[2,3-d]pyrimidin-2-yl)ethyl)-N-(pyridin-3-ylmethyl)-2-(4-(trifluoromethoxy)phenyl)acetamide preincubated for 5 mins followed NADPH addition measured after 45 mins by TIC mass chromatographic analysis in presence of GSH. Type of data set: ADME. The following applies: recombinant enzyme, 0.75 h.

Data set [3] concerns the target T1, Cytochrome P450 3A4. As to the kind of experiment: Drug metabolism assessed as recombinant CYP3A4 (unknown origin)-mediated (R)-N-(1-(3-(3,4-dihydroxyphenyl)-4-oxo-3,4-dihydropyrido[2,3-d]pyrimidin-2-yl)ethyl)-N-(pyridin-3-ylmethyl)-2-(4-(trifluoromethoxy)phenyl)acetamide formation preincubated for 5 mins followed NADPH addition measured after 45 mins by TIC mass chromatographic analysis in presence of GSH. The format is ADME. The note with it: recombinant enzyme, 0.75 h.

Data set [4] has as its target T1, Cytochrome P450 3A4. The data set can be described thus: Drug metabolism assessed as recombinant CYP3A4 (unknown origin)-mediated (R)-N-(1-(3-(2,4-dihydroxyphenyl)-4-oxo-3,4-dihydropyrido[2,3-d]pyrimidin-2-yl)ethyl)-N-(pyridin-3-ylmethyl)-2-(4-(trifluoromethoxy)phenyl)acetamide formation preincubated for 5 mins followed NADPH addition measured after 45 mins by TIC mass chromatographic analysis in presence of GSH. The format is ADME. The note with it: recombinant enzyme, 0.75 h.

The target of data set [5] is T1, Cytochrome P450 3A4. The data set can be described thus: Time dependent inhibition of CYP3A4 in human liver microsomes assessed as conversion of midazolam to 1'-hydroxymidazolam at 0.1 to 30 uM by LC-MS/MS analysis. Type of data set: ADME. For orientation: Liver microsomes are vesicles of endoplasmic reticulum, rich in cytochrome P450 enzymes.
For data set [6], the target named is T1, Cytochrome P450 3A4. The data set can be described thus: Time dependent inhibition of CYP3A4 in human liver microsomes assessed as conversion of testosterone to 6beta-hydroxytestosterone 0.1 to 30 uM by LC-MS/MS analysis. The format is ADME.
The target in data set [7] is T2, CYP3A4 (Homo sapiens, UniProt P08684). As to the kind of experiment: (§1) Inhibition of CYP3A4 in human liver microsomes using midazolam as substrate assessed as residual enzyme activity after 2 to 10 mins by LC-MS/MS analysis. Type of data set: ADME. The note with it: human, liver microsomes, probe midazolam.
The target of data set [8] is T1, Cytochrome P450 3A4. The description is as §1. Type of data set: ADME.
In data set [9] the target is T2, CYP3A4. As to the kind of experiment: (§2) Inhibition of CYP3A4 in human liver microsomes using testosterone as substrate assessed as residual enzyme activity after 2 to 10 mins by LC-MS/MS analysis. Type of data set: ADME. The note with it: human, liver microsomes, probe testosterone.
The target of data set [10] is T1, Cytochrome P450 3A4. Described as §2. The format is ADME.
Data set [11] concerns the target T1, Cytochrome P450 3A4. As to the kind of experiment: Inhibition of CYP3A4 in human liver microsomes using midazolam as substrate assessed as unbound inhibitor concentration required for half maximal enzyme inactivation after 2 to 10 mins by LC-MS/MS analysis. Type of data set: ADME.
The target of data set [12] is T1, Cytochrome P450 3A4. As to the kind of experiment: Inactivation of recombinant CYP3A4 (unknown origin) using testosterone as substrate assessed as partition ratio up to 30 uM preincubated for 5 mins followed by dialysis measured after 4 hrs. The following applies: recombinant enzyme. Type of data set: ADME.
Data set [13] has as its target T1, Cytochrome P450 3A4. The data set can be described thus: Time dependent inhibition of CYP3A4 in human liver microsomes using midazolam as substrate preincubated for 30 mins followed by 10-fold dilution and substrate addition by LC-MS/MS analysis. The format is ADME.
In data set [14] the target is T1, Cytochrome P450 3A4. As to the kind of experiment: Time dependent inhibition of CYP3A4 in human liver microsomes using testosterone as substrate preincubated for 30 mins followed by 10-fold dilution and substrate addition by LC-MS/MS analysis. Type of data set: ADME.
The target of data set [15] is T1, Cytochrome P450 3A4. As to the kind of experiment: Time dependent inhibition of CYP3A4 in human liver microsomes using midazolam as substrate preincubated for 30 mins followed by 10-fold dilution and substrate addition by LC-MS/MS analysis in presence of NADPH. Type of data set: ADME.
The target of data set [16] is T1, Cytochrome P450 3A4. As to the kind of experiment: Time dependent inhibition of CYP3A4 in human liver microsomes using testosterone as substrate preincubated for 30 mins followed by 10-fold dilution and substrate addition by LC-MS/MS analysis in presence of NADPH. The format is ADME.
The target in data set [17] is T1, Cytochrome P450 3A4. The data set can be described thus: Inhibition of CYP3A4 in human liver microsomes using testosterone as substrate assessed as unbound inhibitor concentration required for half maximal enzyme inactivation after 2 to 10 mins by LC-MS/MS analysis. The format is ADME.
Data set [18] deals with T1, Cytochrome P450 3A4. As to the kind of experiment: Ratio of Kinact to Ki for CYP3A4 in human liver microsomes using midazolam as substrate. The format is ADME.
Data set [19] has as its target T1, Cytochrome P450 3A4. The data set can be described thus: Ratio of Kinact to Ki for CYP3A4 in human liver microsomes using testosterone as substrate. The format is ADME.
Data set [20] has as its target T2, CYP3A4. As to the kind of experiment: Ratio of IC50 for CYP3A4 in human liver microsomes using midazolam as substrate preincubated for 30 mins followed by 10-fold dilution and substrate addition to IC50 for CYP3A4 in human liver microsomes using midazolam as substrate preincubated for 30 mins followed by 10-fold dilution and substrate addition in presence of NADPH. The note with it: probe midazolam, read-out: Ratio IC50.

For data set [21], the target named is T2, CYP3A4. The data set can be described thus: Ratio of IC50 for CYP3A4 in human liver microsomes using testosterone as substrate preincubated for 30 mins followed by 10-fold dilution and substrate addition to IC50 for CYP3A4 in human liver microsomes using testosterone as substrate preincubated for 30 mins followed by 10-fold dilution and substrate addition in presence of NADPH. The following applies: probe testosterone, read-out: Ratio IC50.

Data set [22] deals with T1, Cytochrome P450 3A4. The data set can be described thus: Inactivation of recombinant CYP3A4 (unknown origin) using midazolam as substrate assessed as partition ratio up to 30 uM preincubated for 5 mins followed by dialysis measured after 4 hrs. Type of data set: ADME. The following applies: recombinant enzyme.

T1 sequence (P08684 whole entry): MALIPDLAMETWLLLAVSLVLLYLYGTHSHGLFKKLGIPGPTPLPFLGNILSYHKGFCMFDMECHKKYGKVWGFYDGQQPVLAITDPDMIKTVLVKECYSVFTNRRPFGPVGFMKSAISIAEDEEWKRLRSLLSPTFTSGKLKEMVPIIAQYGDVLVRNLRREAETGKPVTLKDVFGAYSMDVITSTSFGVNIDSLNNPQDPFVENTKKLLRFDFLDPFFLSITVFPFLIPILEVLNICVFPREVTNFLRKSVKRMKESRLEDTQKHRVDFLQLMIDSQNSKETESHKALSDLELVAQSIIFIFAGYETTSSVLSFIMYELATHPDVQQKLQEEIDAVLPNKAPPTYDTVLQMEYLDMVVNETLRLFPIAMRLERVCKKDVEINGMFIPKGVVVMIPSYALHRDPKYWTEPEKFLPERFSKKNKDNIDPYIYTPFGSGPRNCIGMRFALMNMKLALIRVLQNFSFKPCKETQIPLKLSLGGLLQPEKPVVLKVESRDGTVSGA
T2 sequence (P08684 whole entry): as above

For `C[C@H](c1nc2ncccc2c(=O)n1-c1cc(SC[C@H](NC(=O)[C@@H](N)CCC(=O)O)C(=O)NCC(=O)O)c(O)cc1O)N(Cc1cccnc1)C(=O)Cc1ccc(OC(F)(F)F)cc1`, the Drug metabolism entry at Cytochrome P450 3A4 [1] is on record as “metabolite_detected”.
Turning to `C[C@H](c1nc2ncccc2c(=O)n1-c1ccc(O)cc1)N(Cc1ccc[n+]([O-])c1)C(=O)Cc1ccc(OC(F)(F)F)cc1`, the Drug metabolism result on Cytochrome P450 3A4 [2] was “metabolite_detected”.
For `C[C@H](c1nc2ncccc2c(=O)n1-c1cc(O)c(O)c(SC[C@H](NC(=O)[C@@H](N)CCC(=O)O)C(=O)NCC(=O)O)c1)N(Cc1cccnc1)C(=O)Cc1ccc(OC(F)(F)F)cc1`, the Drug metabolism entry at Cytochrome P450 3A4 [1] is “metabolite_detected”.
Take `[3H]c1ncccc1CN(C(=O)Cc1ccc(OC(F)(F)F)cc1)[C@H](C)c1nc2ncccc2c(=O)n1-c1ccc(O)cc1`: the Drug metabolism entry on Cytochrome P450 3A4 [3] and at Cytochrome P450 3A4 [4] was “metabolite_detected” throughout.
Take `C[C@H](c1nc2ncccc2c(=O)n1-c1ccc(O)cc1)N(Cc1cccnc1)C(=O)Cc1ccc(OC(F)(F)F)cc1`: the “inhibition (INH)” value at Cytochrome P450 3A4 [5] and on Cytochrome P450 3A4 [6] was “Active” each time. Also, the kinact at CYP3A4 [7] was 0.00147 s⁻¹; on CYP3A4 [9], 0.00165 s⁻¹. Also, the Ki was determined as 1900 nM on Cytochrome P450 3A4 [8], 1900 nM at Cytochrome P450 3A4 [10], 730 nM at Cytochrome P450 3A4 [11] and 740 nM at Cytochrome P450 3A4 [17]. For the same compound, the Ratio is 36 on Cytochrome P450 3A4 [12], 0.12 mL/min/nmol at Cytochrome P450 3A4 [18], 0.13 mL/min/nmol at Cytochrome P450 3A4 [19] and 36 at Cytochrome P450 3A4 [22]. The IC50 was determined as 650 nM against Cytochrome P450 3A4 [13], 2100 nM against Cytochrome P450 3A4 [14], 27 nM on Cytochrome P450 3A4 [15] and 68 nM on Cytochrome P450 3A4 [16]. The IC50 shift at 30 min on CYP3A4 [20] stood at 24; on CYP3A4 [21], 31.
As for `C[C@H](c1nc2ncccc2c(=O)n1-c1c(O)cc(O)cc1SC[C@H](NC(=O)[C@@H](N)CCC(=O)O)C(=O)NCC(=O)O)N(Cc1cccnc1)C(=O)Cc1ccc(OC(F)(F)F)cc1`, the Drug metabolism entry at Cytochrome P450 3A4 [1] is on record as “metabolite_detected”.
The same measure, in the same setting: the same measure for `C[C@H](c1nc2ncccc2c(=O)n1-c1cc(O)c(O)cc1SC[C@H](NC(=O)[C@@H](N)CCC(=O)O)C(=O)NCC(=O)O)N(Cc1cccnc1)C(=O)Cc1ccc(OC(F)(F)F)cc1`: “metabolite_detected”.
Regarding `C[C@H](c1nc2ncccc2c(=O)n1-c1ccc(O)c(O)c1)N(Cc1cccnc1)C(=O)Cc1ccc(OC(F)(F)F)cc1`, the Drug metabolism entry at Cytochrome P450 3A4 [1] is reported as “metabolite_detected”.
On the same count and under the same terms, the same measure for `CC(c1nc2ncccc2c(=O)n1-c1ccc(O)c(O)c1SC[C@H](NC(=O)[C@@H](N)CCC(=O)O)C(=O)NCC(=O)O)N(Cc1cccnc1)C(=O)Cc1ccc(OC(F)(F)F)cc1` (single isomer, unassigned): “metabolite_detected”; for `CC(c1nc2ncccc2c(=O)n1-c1ccc(O)c(SC[C@H](NC(=O)[C@@H](N)CCC(=O)O)C(=O)NCC(=O)O)c1O)N(Cc1cccnc1)C(=O)Cc1ccc(OC(F)(F)F)cc1` (single isomer, unassigned): “metabolite_detected”.
Still for that read-out and setting: under `C[C@H](c1nc2ncccc2c(=O)n1-c1ccc(O)cc1O)N(Cc1cccnc1)C(=O)Cc1ccc(OC(F)(F)F)cc1` stands “metabolite_detected”.

The term kinact denotes the maximal first-order rate at which the target is inactivated. As a reminder, the IC50 is the concentration that gives 50% inhibition.
